Data as given in patent publication US10722518B2, “Oxazine derivative for use in the treatment or prevention of cerebral amyloid angiopathy” (Novartis AG, priority 2016, dated 2020).

Tested on: amyloid-beta in CD31-positive vessels
Assay: Assessment of CAA in APP23 mice by CD31/NT12 double fluorescence immunohistochemistry and image analysis
Type: in vivo, mouse
Method: Amyloid plaques were stained using a rabbit anti-Aβ primary antibody (NT12) which recognizes the C-terminal part of the amyloid peptide (the antibody was raised as described in Schrader-Fischer G and Paganetti P A, 1996, and Schrader-Fischer G et al., 1997). The vascular endothelial cells were detected using a rat anti-CD31 antibody (reference DIA310) from Dianova GmbH (Hamburg, Germany). All stainings were performed using the fully automated instrument Ventana Discovery® Ultra (Roche Diagnostics Schweiz AG, Rotkreuz, Switzerland). All chemicals were provided by Roche Diagnostic.
All study animals were used and brain tissue sections of 3 micrometers were freshly cut and collected on SuperFrost+ slides. The tissues sections were de-paraffinized and rehydrated under solvent-free conditions (EZprep solution) followed by antigen retrieval (demasking) performed by heat retrieval cycles for 32 min in a EDTA based buffer (CC1 solution). Subsequently, slides were blocked for 4 min using the DISCOVERY Inhibitor (reference 07017944001 (Roche)). The primary antibody diluted at 1/10′000 in antibody diluent was manually added on tissue sections and incubated for 1 h at room temperature. A short post-fixation (glutaraldehyde at 0.05%) was performed before applying the multimer UltraMap-anti Rabbit HRP ready to use antibody (reference 05269717001) for 16 min.
Detection was performed using the DISCOVERY FITC® following the manufacturer's recommendations. Slides were then heat denaturated at 92° C. for 20 min before a manual application of the second primary antibody (rat anti-CD31 diluted at 1/1′000 in antibody diluent) and incubated for 1 h. Multimer UltraMap-anti-Rat HRP antibody (reference 05891884001) was used for 20 min to detect CD31 in combination with the DISCOVERY Rhodamine kit (reference 07259883001).
The slides were washed and mounted using Prolong® Gold antifade reagent (reference P36931, ThermoFisher, Switzerland) and further scanned with the Hamamatsu slide scanner instrument (NanoZoomer 2.0 HT, scanning software NDP-Scan Vers. 2.5, Hamamatsu Photonics France, Swiss Office, Solothurn, Switzerland) at the 40× objective. The scanning settings were as follows: the exposure time with the DAPI filter was set at 28.5 ms as well as for the FITC filter and TRITC filter (detection of Rhodamine).
For the quantitative plaque and vessel-associated amyloid-beta evaluation based on image analysis, a proprietary image analysis platform (ASTORIA, Automated Stored Image Analysis) was developed based on MS Visual Studio 2010 and many functions from Matrox MIL V9 libraries (Matrox Inc, Quebec, Canada).
For the beta-amyloid plaque and vessel analysis, the following sequence of steps was performed: • Slides were scanned with Hamamatsu Nanozoomer at 40× magnification. […]

[1] = 0.3 g/kg food, 6 months, all CD31+ vessels
[2] = 0.3 g/kg food, 6 months, large CD31-positive vessels
[3] = 0.3 g/kg vs vehicle, all CD31+ vessels
[4] = 0.3 g/kg vs vehicle, large vessels
[5] = 0.3 g/kg vs vehicle, small + medium vessels

Structure (SMILES): C[C@@]1(c2nc(NC(=O)c3ncc(C(F)(F)F)cc3Cl)ccc2F)CO[C@@](C)(C(F)(F)F)C(N)=N1 [Compound 1, N-(6-((3R,6R)-5-amino-3,6-dimethyl-6-(trifluoromethyl)-3,6-dihydro-2H-1,4-oxazin-3-yl)-5-fluoropyridin-2-yl)-3-chloro-5-(trifluoromethyl)picolinamide]
- % of large vessels with 0% Aβ (0.3 g/kg food, 6 months): 10.3 ± 1.56%
- % of large vessels with 1-10% Aβ (0.3 g/kg food, 6 months): 21.6 ± 2.31%
- % of large vessels with 10-25% Aβ (0.3 g/kg food, 6 months): 9.48 ± 1.85%
- % of large vessels with 25-50% Aβ (0.3 g/kg food, 6 months): 20.6 ± 3.66%
- % of large vessels with 50-75% Aβ (0.3 g/kg food, 6 months): 28.8 ± 3.3%
- % of large vessels with >10% Aβ (0.3 g/kg food, 6 months): 68.1 ± 3.03%
- % of large vessels with >75% Aβ (0.3 g/kg food, 6 months): 9.27 ± 2.77%
- % of small + medium vessels with 0% Aβ (0.3 g/kg food, 6 months): 80.2 ± 1.61%
- % of small + medium vessels with 1-10% Aβ (0.3 g/kg food, 6 months): 10.8 ± 1.12%
- % of small + medium vessels with 10-25% Aβ (0.3 g/kg food, 6 months): 2.75 ± 0.20%
- % of small + medium vessels with 25-50% Aβ (0.3 g/kg food, 6 months): 2.38 ± 0.25%
- % of small + medium vessels with 50-75% Aβ (0.3 g/kg food, 6 months): 1.73 ± 0.21%
- % of small + medium vessels with >10% Aβ (0.3 g/kg food, 6 months): 8.95 ± 0.8%
- % of small + medium vessels with >75% Aβ (0.3 g/kg food, 6 months): 2.07 ± 0.33%
- CAA Frequency (number small + medium vessels with >10% Aβ normalized to sample area, *10^7) (0.3 g/kg food, 6 months): 56 ± 6.1
- Number of large CD31+ vessels (normalized to total CD31 positive vessel numbers in %) (0.3 g/kg food, 6 months): 1.49 ± 0.12%
- Number of small + medium CD31+ vessels (normalized to total CD31 positive small + medium vessel numbers in %) (0.3 g/kg food, 6 months): 98.5 ± 0.12%
- Number small + medium vessels with >10% Aβ, mean ± SEM (0.3 g/kg food, 6 months): 195 ± 21.9
- Total number CD31+ vessels (normalized to total sample area, *10^5), mean ± SEM (0.3 g/kg food, 6 months): 6.46 ± 0.37
- Total vessel-associated NT12 area (normalized to total small + medium CD31+ vessel area) (0.3 g/kg food, 6 months): 0.194 ± 0.0201
- % of vessels with 0% Aβ [1]: 79.2 ± 1.63%
- % of vessels with 1-10% Aβ [1]: 11 ± 1.1%
- % of vessels with 10-25% Aβ [1]: 2.87 ± 0.21%
- % of vessels with 25-50% Aβ [1]: 2.65 ± 0.25%
- % of vessels with 50-75% Aβ [1]: 2.12 ± 0.24%
- % of vessels with >10% Aβ [1]: 9.82 ± 0.85%
- % of vessels with >75% Aβ [1]: 2.19 ± 0.36%
- CAA Frequency (number vessels with >10% Aβ normalized to sample area, *10^7) [1]: 70 ± 7.6
- Number vessels with >10% Aβ, mean ± SEM [1]: 217 ± 23.6
- Total vessel-associated NT12 area (normalized to total CD31+ area) [1]: 0.47 ± 0.04
- CAA Frequency (number vessels with >10% Aβ normalized to sample area, *10^7) [2]: 6.5 ± 0.6
- Number vessels with >10% Aβ, mean ± SEM [2]: 22 ± 2.2
- Total vessel-associated NT12 area (normalized to total CD31+ area) [2]: 0.77 ± 0.04
- % of large vessels with 0% Aβ, treatment effect vs vehicle (0.3 g/kg vs vehicle): −8%
- % of large vessels with 1-10% Aβ, treatment effect vs vehicle (0.3 g/kg vs vehicle): +48%
- % of large vessels with 10-25% Aβ, treatment effect vs vehicle (0.3 g/kg vs vehicle): +35%
- % of large vessels with 25-50% Aβ, treatment effect vs vehicle (0.3 g/kg vs vehicle): +7%
- % of large vessels with 50-75% Aβ, treatment effect vs vehicle (0.3 g/kg vs vehicle): −12%
- % of large vessels with >10% Aβ, treatment effect vs vehicle (0.3 g/kg vs vehicle): −8%
- % of large vessels with >75% Aβ, treatment effect vs vehicle (0.3 g/kg vs vehicle): −36%
- % of small + medium vessels with 0% Aβ, treatment effect vs vehicle (0.3 g/kg vs vehicle): +9%
- % of small + medium vessels with 1-10% Aβ, treatment effect vs vehicle (0.3 g/kg vs vehicle): −15%
- % of small + medium vessels with 10-25% Aβ, treatment effect vs vehicle (0.3 g/kg vs vehicle): −35%
- % of small + medium vessels with 25-50% Aβ, treatment effect vs vehicle (0.3 g/kg vs vehicle): −39%
- % of small + medium vessels with 50-75% Aβ, treatment effect vs vehicle (0.3 g/kg vs vehicle): −35%
- % of small + medium vessels with >10% Aβ, treatment effect vs vehicle (0.3 g/kg vs vehicle): −36%
- % of small + medium vessels with >75% Aβ, treatment effect vs vehicle (0.3 g/kg vs vehicle): −34%
- Total small + medium vessel-associated NT12 area (normalized to total CD31+ small + medium vessel area), treatment effect vs vehicle (0.3 g/kg vs vehicle): −28% p < 0.05
- % of vessels with 0% Aβ, treatment effect vs vehicle [3]: +9%
- % of vessels with 1-10% Aβ, treatment effect vs vehicle [3]: −13%
- % of vessels with 10-25% Aβ, treatment effect vs vehicle [3]: −32%
- % of vessels with 25-50% Aβ, treatment effect vs vehicle [3]: 36%
- % of vessels with 50-75% Aβ, treatment effect vs vehicle [3]: −33%
- % of vessels with >10% Aβ, treatment effect vs vehicle [3]: −34%
- % of vessels with >75% Aβ, treatment effect vs vehicle [3]: −34%
- CAA Frequency, treatment effect vs vehicle [3]: −29% p < 0.05
- Number vessels with >10% Aβ, treatment effect vs vehicle [3]: −39% p < 0.001
- Total vessel-associated NT12 area (normalized to total CD31+ area), treatment effect vs vehicle [3]: −19% n.s.
- CAA Frequency, treatment effect vs vehicle [4]: −17% n.s.
- Number vessels with >10% Aβ, treatment effect vs vehicle [4]: −21% n.s.
- Total vessel-associated NT12 area (normalized to total CD31+ area), treatment effect vs vehicle [4]: −4% n.s.
- CAA Frequency, treatment effect vs vehicle [5]: −37% p < 0.005
- Number vessels with >10% Aβ, treatment effect vs vehicle [5]: −40% p < 0.001
